Series [1] can be described thus: Radiochemical purity (RCP) stability of 177Lu-NeoB drug product formulations over shelf life (72 h), lab-scale batches. The following applies: Table 7: gentisic acid 1000 μg/mL, ascorbic acid 15000 μg/mL, Kolliphor HS 15 100 μg/mL, about 200 mCi, 10 mCi/mL; end of shelf life (72 hours). It counts as physicochemical. How it is done:
“Radiochemical purity”: is that percentage of the stated radionuclide that is present in the stated chemical or biological form. Radiochromatography methods, such as HPLC method or instant Thin Layer Chromatography method (ITLC), are the most commonly accepted methods for determining radiochemical purity in the nuclear pharmacy.
The stability of the ^177Lu-labelled product over 72 hours with the same antioxidant amount present in the Lutathera formulation. In particular, the following conditions are reproduced: […] step; • Kolliphor HS 15:1 mg added before the labelling step; • Peptide: Lu ratio≥1.5; […] during the formulation step; • Final volumetric Activity 10 mCi/mL; • Final pH 4-6; • Reaction buffer: Acetic acid/acetate buffer;
The radiolabelling tests are carried out both manually and automatically by using the MiniAlO synthesizer. The synthesis procedure is developed as follows: • 1. Transferring of ^177LuCl3 into reactor; • 2. Transferring of the reaction buffer into reactor. The reaction buffer is composed of sodium acetate buffer and gentisic acid. The acetate buffer allows to maintain the labelling pH between 4-5, while the gentisic acid protects the peptide from radiolysis during the labelling step; • 3. Addition of the NeoB1 solution containing Kolliphor HS 15 into reactor; • 4. Heating at 95° C. for 5 minutes; […]

The target in series [2] is GRPR expressed in breast, prostate, and Gastro Intestinal Stromal Tumor (GIST) (Homo sapiens, UniProt P30550). The conditions noted are these: non-clinical models; cited from earlier work.
Chain of GRPR expressed in breast, prostate, and Gastro Intestinal Stromal Tumor (GIST) (P30550 whole entry): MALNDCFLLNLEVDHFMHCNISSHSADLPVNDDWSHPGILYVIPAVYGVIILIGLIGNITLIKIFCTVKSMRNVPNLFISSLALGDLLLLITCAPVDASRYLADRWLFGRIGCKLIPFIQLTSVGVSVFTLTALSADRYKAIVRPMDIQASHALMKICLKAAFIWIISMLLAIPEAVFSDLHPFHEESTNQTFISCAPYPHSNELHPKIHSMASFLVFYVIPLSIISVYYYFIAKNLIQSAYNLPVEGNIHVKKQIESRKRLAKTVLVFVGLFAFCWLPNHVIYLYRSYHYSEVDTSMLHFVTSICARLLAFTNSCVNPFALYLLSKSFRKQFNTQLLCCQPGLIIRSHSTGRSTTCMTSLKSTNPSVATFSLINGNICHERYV
The next series has as its target GRPR (Homo sapiens, UniProt P30550). The conditions noted are these: non-clinical models; cited from earlier work.

Data on two molecules can be found in US12685790B2, “Stable, concentrated radiopharmaceutical composition” (NOVARTIS AG, priority 2019, dated 2026).

Chain of GRPR (P30550 whole entry): as above

On to `CC(C)CC(CC(C)C)NC(=O)[C@H](Cc1cnc[nH]1)NC(=O)CNC(=O)[C@@H](NC(=O)[C@H](C)NC(=O)[C@H](Cc1c[nH]c2ccccc12)NC(=O)[C@H](CCC(N)=O)NC(=O)[C@@H](Cc1ccccc1)NC(=O)COCC(=O)Nc1ccc(CNC(=O)CN2CCN(CC(=O)O)CCN(CC(=O)O)CCN(CC(=O)O)CC2)cc1)C(C)C` [[^177Lu]-NeoB, metal not drawn], for which the “Radiochemical purity (%) at end of shelf life” value in series [1] is recorded as “over 95%”.
Take `CC(C)CC(CC(C)C)NC(=O)[C@H](Cc1cnc[nH]1)NC(=O)CNC(=O)[C@@H](NC(=O)[C@H](C)NC(=O)[C@H](Cc1c[nH]c2ccccc12)NC(=O)[C@H](CCC(N)=O)NC(=O)[C@@H](Cc1ccccc1)NC(=O)COCC(=O)Nc1ccc(CNC(=O)CN2CCN(CC(=O)O)CCN(CC(=O)O)CCN(CC(=O)O)CC2)cc1)C(C)C` [[^68Ga]-NeoB, metal not drawn]: the “affinity to the GRPR” value in series [2] is “high affinity”. Moreover, the “degree of internalization upon binding to the specific receptor” value at GRPR is recorded as “low degree of internalization”.
